Results published in patent publication US12662479B2 (Foghorn Therapeutics Inc., priority 2020, dated 2026).

How the values were obtained:
HiBit-BRM fusion protein = target: T1, HiBit-BRM fusion protein (Homo sapiens, UniProt P51531); assay: HiBiT-BRM cell-based degradation assay (Nano-Glo HiBiT Lytic Detection, 24 h); settings: HeLa cells expressing HiBiT-BRM; for DC50: read-out: BRM HiBit Degradation IC50; for BRM HiBit Degradation Maximum measured: top dose 30 μM
T1 construct: expressed in transfected cells
Summary of the method: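 Stable HiBiT-BRM HeLa line; 24 h compound exposure, top final 30 μM, 3-fold, 10 pts in duplicate. Lytic HiBiT/LgBiT luminescence readout. % degradation vs DMSO (0%) and 2 μM known BRM/BRG1 degrader (100%).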

[1] = target: T2, HiBit-BRG1 fusion protein (Homo sapiens, UniProt P51532); assay: HiBiT-BRG1 cell-based degradation assay (Nano-Glo HiBiT Lytic Detection, 24 h); settings: HeLa cells expressing HiBit-BRG1 and LgBit; for DC50: read-out: BRG1 HiBit Degradation IC50; for Dmax: HeLa, top dose 30 μM, read-out: BRG1 HiBit Degradation Maximum measured
T2 construct: expressed in transfected cells
Summary of the method: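 Degradation is scaled from DMSO-treated cells (0%) to cells given 2 μM of a known BRM/BRG1 degrader (100%). HeLa cells stably carrying HiBiT-BRG1 plus LgBiT (5000/well) were lysed with Nano-Glo HiBiT detection reagent, shaken 10 min at RT, and luminescence read.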

T1 sequence (P51531 whole entry, the tested form may be a part): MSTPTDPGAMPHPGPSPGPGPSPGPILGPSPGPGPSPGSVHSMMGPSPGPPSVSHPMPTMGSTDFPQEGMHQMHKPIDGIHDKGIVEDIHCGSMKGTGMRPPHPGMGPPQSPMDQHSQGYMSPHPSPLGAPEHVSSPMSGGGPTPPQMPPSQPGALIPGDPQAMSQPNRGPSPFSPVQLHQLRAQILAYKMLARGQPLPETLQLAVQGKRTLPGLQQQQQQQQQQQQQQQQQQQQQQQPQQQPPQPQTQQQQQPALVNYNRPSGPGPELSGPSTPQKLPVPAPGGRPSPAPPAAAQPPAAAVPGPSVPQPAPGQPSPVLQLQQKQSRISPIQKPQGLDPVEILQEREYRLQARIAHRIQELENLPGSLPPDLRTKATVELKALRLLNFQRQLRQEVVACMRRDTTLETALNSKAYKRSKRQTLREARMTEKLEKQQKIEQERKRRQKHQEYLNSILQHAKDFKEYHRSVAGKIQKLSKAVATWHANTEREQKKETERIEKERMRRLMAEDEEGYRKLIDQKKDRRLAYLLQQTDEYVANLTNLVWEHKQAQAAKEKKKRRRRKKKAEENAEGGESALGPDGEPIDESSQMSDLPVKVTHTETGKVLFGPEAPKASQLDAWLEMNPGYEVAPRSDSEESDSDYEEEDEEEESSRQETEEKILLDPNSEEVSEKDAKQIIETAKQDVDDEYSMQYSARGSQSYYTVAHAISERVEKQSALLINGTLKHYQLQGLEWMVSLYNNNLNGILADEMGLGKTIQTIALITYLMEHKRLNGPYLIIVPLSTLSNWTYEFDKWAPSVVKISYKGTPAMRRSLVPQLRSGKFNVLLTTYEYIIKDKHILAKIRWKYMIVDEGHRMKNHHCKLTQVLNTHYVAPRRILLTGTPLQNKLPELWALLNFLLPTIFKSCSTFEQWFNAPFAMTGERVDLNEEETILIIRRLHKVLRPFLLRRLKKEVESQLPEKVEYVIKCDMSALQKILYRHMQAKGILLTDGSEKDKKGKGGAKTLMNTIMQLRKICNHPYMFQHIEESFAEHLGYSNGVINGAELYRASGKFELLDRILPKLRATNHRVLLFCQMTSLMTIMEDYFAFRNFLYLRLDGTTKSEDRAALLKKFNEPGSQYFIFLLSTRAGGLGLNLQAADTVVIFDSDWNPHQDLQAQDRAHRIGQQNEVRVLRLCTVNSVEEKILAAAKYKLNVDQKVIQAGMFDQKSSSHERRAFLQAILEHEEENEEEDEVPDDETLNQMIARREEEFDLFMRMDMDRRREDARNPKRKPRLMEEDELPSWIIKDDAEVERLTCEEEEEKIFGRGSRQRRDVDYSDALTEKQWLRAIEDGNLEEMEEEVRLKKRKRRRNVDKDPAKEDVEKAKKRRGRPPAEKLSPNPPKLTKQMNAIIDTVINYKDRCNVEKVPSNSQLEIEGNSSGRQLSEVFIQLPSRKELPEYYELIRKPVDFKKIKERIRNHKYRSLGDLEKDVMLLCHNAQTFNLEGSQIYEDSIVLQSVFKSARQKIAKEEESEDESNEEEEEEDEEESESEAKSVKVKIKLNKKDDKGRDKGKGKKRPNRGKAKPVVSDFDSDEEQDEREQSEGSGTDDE
T2 sequence (P51532 whole entry, the tested form may be a part): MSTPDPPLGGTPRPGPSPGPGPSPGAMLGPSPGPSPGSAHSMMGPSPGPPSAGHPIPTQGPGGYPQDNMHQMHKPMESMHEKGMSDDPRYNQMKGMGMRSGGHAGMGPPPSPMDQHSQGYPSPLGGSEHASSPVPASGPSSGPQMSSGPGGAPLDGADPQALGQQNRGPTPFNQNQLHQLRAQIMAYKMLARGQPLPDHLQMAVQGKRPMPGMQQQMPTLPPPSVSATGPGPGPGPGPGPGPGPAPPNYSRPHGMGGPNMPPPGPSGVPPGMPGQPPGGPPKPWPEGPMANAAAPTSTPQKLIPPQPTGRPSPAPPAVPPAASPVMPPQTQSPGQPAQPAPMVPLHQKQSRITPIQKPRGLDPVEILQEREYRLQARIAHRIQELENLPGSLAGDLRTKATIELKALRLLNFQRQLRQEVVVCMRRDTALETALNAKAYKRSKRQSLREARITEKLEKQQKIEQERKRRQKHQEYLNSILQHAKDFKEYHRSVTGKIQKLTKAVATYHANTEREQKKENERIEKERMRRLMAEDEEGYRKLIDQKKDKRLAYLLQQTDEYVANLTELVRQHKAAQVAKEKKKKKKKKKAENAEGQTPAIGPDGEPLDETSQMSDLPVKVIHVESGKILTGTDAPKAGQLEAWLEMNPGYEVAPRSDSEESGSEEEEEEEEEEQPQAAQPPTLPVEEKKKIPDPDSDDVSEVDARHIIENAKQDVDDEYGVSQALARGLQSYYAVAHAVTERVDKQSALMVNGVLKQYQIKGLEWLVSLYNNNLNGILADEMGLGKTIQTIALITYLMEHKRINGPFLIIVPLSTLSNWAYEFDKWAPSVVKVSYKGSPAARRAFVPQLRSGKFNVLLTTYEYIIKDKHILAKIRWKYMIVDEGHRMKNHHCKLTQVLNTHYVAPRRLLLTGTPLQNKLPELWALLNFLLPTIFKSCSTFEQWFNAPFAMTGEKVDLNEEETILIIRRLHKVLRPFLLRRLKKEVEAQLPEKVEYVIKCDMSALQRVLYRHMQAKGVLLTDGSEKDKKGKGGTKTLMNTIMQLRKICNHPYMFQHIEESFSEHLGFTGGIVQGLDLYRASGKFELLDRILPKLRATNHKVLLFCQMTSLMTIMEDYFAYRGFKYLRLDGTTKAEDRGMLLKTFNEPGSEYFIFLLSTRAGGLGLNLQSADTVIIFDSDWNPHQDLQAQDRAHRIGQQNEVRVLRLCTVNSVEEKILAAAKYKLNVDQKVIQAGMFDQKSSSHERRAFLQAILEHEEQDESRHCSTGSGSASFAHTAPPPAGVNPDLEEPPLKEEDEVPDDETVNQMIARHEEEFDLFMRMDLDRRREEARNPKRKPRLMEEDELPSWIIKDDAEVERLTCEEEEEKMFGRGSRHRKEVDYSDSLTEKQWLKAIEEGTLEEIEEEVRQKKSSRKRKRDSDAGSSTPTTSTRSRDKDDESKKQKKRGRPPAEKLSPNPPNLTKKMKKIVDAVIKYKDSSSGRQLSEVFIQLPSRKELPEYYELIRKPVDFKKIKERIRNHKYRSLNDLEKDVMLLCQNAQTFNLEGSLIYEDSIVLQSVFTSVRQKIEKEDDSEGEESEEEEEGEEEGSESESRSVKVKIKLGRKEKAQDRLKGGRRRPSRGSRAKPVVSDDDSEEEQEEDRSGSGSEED

Compound | DC50 (HiBit-BRM fusion protein) | BRM HiBit Degradation Maximum measured (HiBit-BRM fusion protein) | DC50 [1] | Dmax [1]
Cc1ncsc1-c1ccc(CNC(=O)[C@@H]2C[C@@H](O)CN2C(=O)[C@@H](NC(=O)CCCCCCCC(=O)NCc2cccc(-c3cccc(-c4csc(NC(=O)CNC(=O)c5ccn(S(C)(=O)=O)c5)n4)c3)c2)C(C)(C)C)cc1 [Compound 49, N1-((S)-1-((2S,4R)-4-hydroxy-2-((4-(4-methylthiazol-5-yl)benzyl)carbamoyl)pyrrolidin-1-yl)-3,3-dimethyl-1-oxobutan-2-yl)-N9-((3′-(2-(2-(1-(methylsulfonyl)-1H-pyrrole-3-carboxamido)acetamido)thiazol-4-yl)-[1,1′-biphenyl]-3-yl)methyl)nonanediamide] | < 100 nM | A (‘A’ = Maximum degradation >75%) | < 100 nM | > 75%
Cc1ncsc1-c1ccc(CNC(=O)[C@@H]2C[C@@H](O)CN2C(=O)[C@@H](NC(=O)CCCCCCCNC(=O)CCCOCC[C@H](NC(=O)c2ccn(S(C)(=O)=O)c2)C(=O)Nc2nc(-c3ccccc3)cs2)C(C)(C)C)cc1 [Compound 218, (2S,4R)-4-hydroxy-1-[(2S)-2-(8-[4-[(3S)-3-[(1-methanesulfonylpyrrol-3-yl)formamido]-3-[(4-phenyl-1,3-thiazol-2-yl)carbamoyl]propoxy]butanamido]octanamido)-3,3-dimethylbutanoyl]-N-[[4-(4-methyl-1,3-thiazol-5-yl)phenyl]methyl]pyrrolidine-2-carboxamide] | > 10000 nM | C (‘C’ = Maximum degradation <50%) | > 10000 nM | < 50%
CS(=O)(=O)n1ccc(C(=O)NCC(=O)Nc2nc(-c3cccc(-c4cccc(CNC(=O)CCOCCOCCNc5cccc6c5C(=O)N(C5CCC(=O)NC5=O)C6=O)c4)c3)cs2)c1 (stereo not shown) [Compound 42, N-(2-((4-(3′-((3-(2-(2-((2-(2,6-dioxopiperidin-3-yl)-1,3-dioxoisoindolin-4-yl)amino)ethoxy)ethoxy)propanamido)-methyl)-[1,1′-biphenyl]-3-yl)thiazol-2-yl)amino)-2-oxoethyl)-1-(methylsulfonyl)-1H-pyrrole-3-carboxamide] | > 10000 nM | C (‘C’ = Maximum degradation <50%) | 100 to 1000 nM | 50 to 75%
Cc1ncsc1-c1ccc(CNC(=O)[C@@H]2C[C@@H](O)CN2C(=O)[C@@H](NC(=O)COCCOCCNC(=O)CCCOC[C@H](NC(=O)c2ccn(S(C)(=O)=O)c2)C(=O)Nc2nc(-c3ccccc3)cs2)C(C)(C)C)cc1 [Compound 173, (2S,4R)-4-hydroxy-1-[(2S)-2-[2-[2-(2-[4-[(2S)-2-[(1-methanesulfonylpyrrol-3-yl)formamido]-2-[(4-phenyl-1,3-thiazol-2-yl)carbamoyl]ethoxy]butanamido]ethoxy)ethoxy]acetamido]-3,3-dimethylbutanoyl]-N-[[4-(4-methyl-1,3-thiazol-5-yl)phenyl]methyl]pyrrolidine-2-carboxamide] | > 10000 nM | C (‘C’ = Maximum degradation <50%) | > 10000 nM | < 50%
CS(=O)(=O)n1ccc(C(=O)N[C@@H](COCc2ccc(C(=O)NCCOCCOCCOCCNC(=O)COc3ccc4c(c3)C(=O)N(C3CCC(=O)NC3=O)C4=O)cc2)C(=O)Nc2nc(-c3ccccc3)cs2)c1 (stereo partly drawn) [Compound 202, (2S)-3-[(4-[[2-(2-[2-[2-(2-[[2-(2,6-dioxopiperidin-3-yl)-1,3-dioxoisoindol-5-yl]oxy]acetamido)ethoxy]ethoxy]ethoxy)ethyl]carbamoyl]phenyl)methoxy]-2-[(1-methanesulfonylpyrrol-3-yl)formamido]-N-(4-phenyl-1,3-thiazol-2-yl)propanamide] | > 10000 nM | C (‘C’ = Maximum degradation <50%) | > 10000 nM | < 50%
CC(C)(C(=O)NCCCCCCCCNC(=O)COc1cccc2c1C(=O)N(C1CCC(=O)NC1=O)C2=O)n1ccc(-c2cccc(-c3csc(NC(=O)CNC(=O)c4ccn(S(C)(=O)=O)c4)n3)c2)n1 (stereo not shown) [Compound 8, N-(2-((4-(3-(1-(1-((8-(2-((2-(2,6-dioxopiperidin-3-yl)-1,3-dioxoisoindolin-4-yl)oxy)acetamido)octyl)amino)-2-methyl-1-oxopropan-2-yl)-1H-pyrazol-3-yl)phenyl)thiazol-2-yl)amino)-2-oxoethyl)-1-(methylsulfonyl)-1H-pyrrole-3-carboxamide] | 100 to 1000 nM | B (‘B’ = Maximum degradation ≥50% and ≤75%) | 100 to 1000 nM | 50 to 75%
CS(=O)(=O)n1ccc(C(=O)N[C@@H](COCc2ccc(CNC(=O)CCCCCCCOc3cccc4c3C(=O)N(C3CCC(=O)NC3=O)C4=O)cc2)C(=O)Nc2nc(-c3ccccc3)cs2)c1 (stereo partly drawn) [Compound 213, 8-[[2-(2,6-dioxopiperidin-3-yl)-1,3-dioxoisoindol-4-yl]oxy]-N-[(4-[[(2S)-2-[(1-methanesulfonylpyrrol-3-yl)formamido]-2-[(4-phenyl-1,3-thiazol-2-yl)carbamoyl]ethoxy]methyl]phenyl)methyl]octanamide] | 100 to 1000 nM | B (‘B’ = Maximum degradation ≥50% and ≤75%) | 100 to 1000 nM | 50 to 75%
Cc1ncsc1-c1ccc(CNC(=O)[C@@H]2C[C@@H](O)CN2C(=O)[C@@H](NC(=O)CCCCCNC(=O)C2(c3cc(-c4cccc(-c5csc(NC(=O)CNC(=O)c6ccn(S(C)(=O)=O)c6)n5)c4)ccn3)CC2)C(C)(C)C)cc1 [Compound 100, N-(2-((4-(3-(2-(1-((6-(((S)-1-((2S,4R)-4-hydroxy-2-((4-(4-methylthiazol-5-yl)benzyl)carbamoyl)pyrrolidin-1-yl)-3,3-dimethyl-1-oxobutan-2-yl)amino)-6-oxohexyl)carbamoyl)cyclopropyl)-pyridin-4-yl)phenyl)thiazol-2-yl)amino)-2-oxoethyl)-1-(methylsulfonyl)-1H-pyrrole-3-carboxamide] | 100 to 1000 nM | A (‘A’ = Maximum degradation >75%) | < 100 nM | > 75%
Cc1ncsc1-c1ccc(CNC(=O)C2CC(O)CN2C(=O)C(NC(=O)CCCCCCCNC(=O)c2ccc(COCC(NC(=O)c3ccn(S(C)(=O)=O)c3)C(=O)Nc3nc(-c4ccccc4)cs3)cc2)C(C)(C)C)cc1 (stereo not shown) [Compound 174] | 100 to 1000 nM | B (‘B’ = Maximum degradation ≥50% and ≤75%) | 100 to 1000 nM | 50 to 75%
CS(=O)(=O)n1ccc(C(=O)N[C@@H](CCOCCCC(=O)N2CC3(CCN(CCCNc4ccc5c(c4)C(=O)N(C4CCC(=O)NC4=O)C5=O)CC3)C2)C(=O)Nc2nc(-c3ccccc3)cs2)c1 (stereo partly drawn) [Compound 222, (2S)-4-[4-[7-(3-[[2-(2,6-dioxopiperidin-3-yl)-1,3-dioxoisoindol-5-yl]amino]propyl)-2,7-diazaspiro[3.5]nonan-2-yl]-4-oxobutoxy]-2-[(1-methanesulfonylpyrrol-3-yl)formamido]-N-(4-phenyl-1,3-thiazol-2-yl)butanamide; formic acid] | > 10000 nM | C (‘C’ = Maximum degradation <50%) | > 10000 nM | < 50%
Cc1ncsc1-c1ccc(CNC(=O)[C@@H]2C[C@@H](O)CN2C(=O)[C@@H](NC(=O)COCC(=O)NCCOc2cc(-c3cccc(-c4csc(NC(=O)CNC(=O)c5ccn(S(C)(=O)=O)c5)n4)c3)ccn2)C(C)(C)C)cc1 [Compound 78, N-[2-[[4-[3-[2-[2-[[2-[2-[[(1S)-1-[(2S,4R)-4-hydroxy-2-[[4-(4-methylthiazol-5-yl)phenyl]methylcarbamoyl]pyrrolidine-1-carbonyl]-2,2-dimethyl-propyl]amino]-2-oxo-ethoxy]acetyl]amino]ethoxy]-4-pyridyl]phenyl]thiazol-2-yl]amino]-2-oxo-ethyl]-1-methylsulfonyl-pyrrole-3-carboxamide] | > 10000 nM | C (‘C’ = Maximum degradation <50%) | > 10000 nM | < 50%
CS(=O)(=O)n1ccc(C(=O)NC(CCOCCCC(=O)NC2CCN(CCOc3ccc4c(c3)C(=O)N(C3CCC(=O)NC3=O)C4=O)CC2)C(=O)Nc2nc(-c3ccccc3)cs2)c1 [Compound 279, (2S)-4-(3-[[1-(2-[[2-(2,6-dioxopiperidin-3-yl)-1,3-dioxoisoindol-5-yl]oxylethyl)piperidin-4-yl]carbamoyl]propoxy)-2-[(1-methanesulfonylpyrrol-3-yl)formamido]-N-(4-phenyl-1,3-thiazol-2-yl)butanamide; formic acid] | > 10000 nM | C (‘C’ = Maximum degradation <50%) | > 10000 nM | < 50%
CS(=O)(=O)n1ccc(C(=O)NCC(=O)Nc2nc(-c3cccc(-c4cccc(CNC(=O)CCOCCOCCOc5ccc6c(c5)C(=O)N(C5CCC(=O)NC5=O)C6=O)c4)c3)cs2)c1 (stereo not shown) [Compound 55, N-[2-[[4-[3-[3-[[3-[2-[2-[2-(2,6-dioxo-3-piperidyl)-1,3-dioxo-isoindolin-5-yl]oxyethoxy]ethoxy]propanoylamino]-methyl]phenyl]phenyl]thiazol-2-yl]amino]-2-oxo-ethyl]-1-methylsulfonyl-pyrrole-3-carboxamide] | 100 to 1000 nM | B (‘B’ = Maximum degradation ≥50% and ≤75%) | 100 to 1000 nM | 50 to 75%
